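Five compound concentrations were applied to cells in 96-well plates for 48 hours; endpoints were derived by simple linear interpolation of the resulting dose-response curve. Abbreviation: GI50, concentration required for 50% inhibition of growth. Definition used: TGI = concentration required for complete inhibition of growth.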 The source made the active and inactive calls. No stated cut-off is given here; in the data, active means GI50 below about 0.43 µM; inactive means the rest.
Columns and labels:
Experiment in all cases: inhibition of tumour cell growth, NCI panel, 48 h
786-0 renal = tested on: 786-0 renal
DMS 114 small cell lung = tested on: DMS 114 small cell lung
DU-145 prostate = tested on: DU-145 prostate
HCT-116 colon = tested on: HCT-116 colon
IGROV1 ovarian = tested on: IGROV1 ovarian
KM20L2 colon = tested on: KM20L2 colon
MALME-3M melanoma = tested on: MALME-3M melanoma
NCI-H226 lung = tested on: NCI-H226 lung
NCI-H23 lung = tested on: NCI-H23 lung
OVCAR-3 ovarian = tested on: OVCAR-3 ovarian
RXF 393 renal = tested on: RXF 393 renal
RXF-631 renal = tested on: RXF-631 renal
SF-268 CNS = tested on: SF-268 CNS
SNB-19 CNS = tested on: SNB-19 CNS
SNB-75 CNS = tested on: SNB-75 CNS
SW-620 colon = tested on: SW-620 colon
UACC-62 melanoma = tested on: UACC-62 melanoma
XF 498 CNS = tested on: XF 498 CNS

Question: With `C[CH2][Sn]([CH2]C)([O]C(=O)c1ccccc1F)[O]C(=O)c1ccccc1F` as the molecule, how does the GI50 (786-0 renal) read?
Answer: 33.3 µM

Question: What about the TGI (786-0 renal) of the same molecule?
Answer: > 69.3 µM

Question: What about the GI50 (DMS 114 small cell lung) of the same molecule?
Answer: 20.4 µM

Question: What about the TGI (DMS 114 small cell lung) of the same molecule?
Answer: 43.1 µM

Question: What about the GI50 (DU-145 prostate) of the same molecule?
Answer: > 100 µM

Question: What about the TGI (DU-145 prostate) of the same molecule?
Answer: > 100 µM

Question: What about the GI50 (HCT-116 colon) of the same molecule?
Answer: > 69.8 µM

Question: What about the TGI (HCT-116 colon) of the same molecule?
Answer: > 100 µM

Question: And the GI50 (IGROV1 ovarian)?
Answer: > 100 µM

Question: What about the TGI (IGROV1 ovarian) of the same molecule?
Answer: > 100 µM

Question: What about the GI50 (KM20L2 colon) of the same molecule?
Answer: > 83.8 µM

Question: And the TGI (KM20L2 colon)?
Answer: > 100 µM

Question: What about the GI50 (MALME-3M melanoma) of the same molecule?
Answer: 16.5 µM

Question: And the TGI (MALME-3M melanoma)?
Answer: 31.4 µM

Question: And the GI50 (NCI-H226 lung)?
Answer: 14.7 µM

Question: What about the TGI (NCI-H226 lung) of the same molecule?
Answer: 22.1 µM

Question: And the GI50 (NCI-H23 lung)?
Answer: 22.6 µM

Question: What about the TGI (NCI-H23 lung) of the same molecule?
Answer: 45 µM

Question: And the GI50 (OVCAR-3 ovarian)?
Answer: > 100 µM

Question: And the TGI (OVCAR-3 ovarian)?
Answer: > 100 µM

Question: And the GI50 (RXF 393 renal)?
Answer: 15.4 µM

Question: What about the TGI (RXF 393 renal) of the same molecule?
Answer: 35.4 µM

Question: What about the GI50 (RXF-631 renal) of the same molecule?
Answer: 18.6 µM

Question: What about the TGI (RXF-631 renal) of the same molecule?
Answer: 34.1 µM

Question: What about the GI50 (SF-268 CNS) of the same molecule?
Answer: 32.1 µM

Question: What about the TGI (SF-268 CNS) of the same molecule?
Answer: 50.8 µM

Question: What about the GI50 (SNB-19 CNS) of the same molecule?
Answer: 36.6 µM

Question: What about the TGI (SNB-19 CNS) of the same molecule?
Answer: 60.6 µM

Question: And the GI50 (SNB-75 CNS)?
Answer: 21.7 µM

Question: And the TGI (SNB-75 CNS)?
Answer: > 53.4 µM

Question: What about the GI50 (SW-620 colon) of the same molecule?
Answer: 28.3 µM

Question: What about the TGI (SW-620 colon) of the same molecule?
Answer: 73.7 µM

Question: What about the GI50 (UACC-62 melanoma) of the same molecule?
Answer: 27.2 µM

Question: And the TGI (UACC-62 melanoma)?
Answer: 52.4 µM

Question: And the GI50 (XF 498 CNS)?
Answer: 15.9 µM

Question: And the TGI (XF 498 CNS)?
Answer: 30.6 µM

Question: For `C=CC(=O)C#CC#CC/C=C\CCCCCCC`, which TGI (786-0 renal) is on record?
Answer: > 18.4 µM

Question: What about the outcome (786-0 renal) of the same molecule?
Answer: inactive

Question: And the TGI (DMS 114 small cell lung)?
Answer: > 20.6 µM

Question: What about the TGI (DU-145 prostate) of the same molecule?
Answer: > 20.6 µM

Question: And the outcome (DU-145 prostate)?
Answer: inactive

Question: And the TGI (HCT-116 colon)?
Answer: > 20.6 µM

Question: And the outcome (HCT-116 colon)?
Answer: inactive

Question: And the TGI (IGROV1 ovarian)?
Answer: > 6.51 µM

Question: And the outcome (IGROV1 ovarian)?
Answer: inactive

Question: And the TGI (KM20L2 colon)?
Answer: > 20.6 µM

Question: What about the TGI (MALME-3M melanoma) of the same molecule?
Answer: > 20.6 µM

Question: And the outcome (MALME-3M melanoma)?
Answer: inactive

Question: And the TGI (NCI-H226 lung)?
Answer: > 20.6 µM

Question: What about the outcome (NCI-H226 lung) of the same molecule?
Answer: inactive

Question: And the TGI (NCI-H23 lung)?
Answer: > 20.6 µM

Question: What about the outcome (NCI-H23 lung) of the same molecule?
Answer: inactive

Question: And the TGI (OVCAR-3 ovarian)?
Answer: > 20.6 µM

Question: What about the outcome (OVCAR-3 ovarian) of the same molecule?
Answer: inactive

Question: And the TGI (RXF 393 renal)?
Answer: > 19.5 µM

Question: What about the outcome (RXF 393 renal) of the same molecule?
Answer: inactive

Question: And the TGI (SF-268 CNS)?
Answer: > 20.6 µM

Question: And the outcome (SF-268 CNS)?
Answer: inactive

Question: What about the TGI (SNB-19 CNS) of the same molecule?
Answer: > 20.6 µM

Question: What about the outcome (SNB-19 CNS) of the same molecule?
Answer: inactive

Question: And the TGI (SNB-75 CNS)?
Answer: > 20.6 µM

Question: And the outcome (SNB-75 CNS)?
Answer: inactive

Question: And the TGI (SW-620 colon)?
Answer: > 20.6 µM

Question: And the outcome (SW-620 colon)?
Answer: inactive

Question: What about the TGI (UACC-62 melanoma) of the same molecule?
Answer: > 20.6 µM

Question: And the outcome (UACC-62 melanoma)?
Answer: inactive

— PubChem BioAssay (NCI)
